In PubChem BioAssay AID1259407 (Chemical Carcinogenesis Research Information System (CCRIS), 2018):
Calls of active or inactive are those of the source. No rule for the calls is given here.

System: CCRIS mutagenicity, Ames/micronucleus/aberration tests
Assay: CCRIS mutagenicity studies
[1] = Test System: AMES SALMONELLA TYPHIMURIUM, Strain/Indicator: TA98, Metabolic Activation: NONE, Method: STANDARD PLATE
[2] = Test System: AMES SALMONELLA TYPHIMURIUM, Strain/Indicator: TA98, Metabolic Activation: RAT, LIVER, S-9, AROCLOR 1254, Method: STANDARD PLATE
[3] = Test System: AMES SALMONELLA TYPHIMURIUM, Strain/Indicator: TA100, Metabolic Activation: NONE, Method: STANDARD PLATE
[4] = Test System: AMES SALMONELLA TYPHIMURIUM, Strain/Indicator: TA100, Metabolic Activation: RAT, LIVER, S-9, AROCLOR 1254, Method: STANDARD PLATE
[5] = Test System: AMES SALMONELLA TYPHIMURIUM, Strain/Indicator: TA1537, Metabolic Activation: NONE, Method: STANDARD PLATE
[6] = Test System: AMES SALMONELLA TYPHIMURIUM, Strain/Indicator: TA1537, Metabolic Activation: RAT, LIVER, S-9, AROCLOR 1254, Method: STANDARD PLATE
[7] = Test System: AMES SALMONELLA TYPHIMURIUM, Strain/Indicator: TA1538, Metabolic Activation: NONE, Method: STANDARD PLATE

Measured: mutagenic call

O=CC(O)C(O)C(O)C(O)COC1OC(COC2OC(CO)C(O)C(O)C2O)C(O)C(O)C1O (stereo not drawn)
inactive: Test System: AMES SALMONELLA TYPHIMURIUM, Strain/Indicator: TA98, Metabolic Activation: HAMSTER, LIVER, S-9, AROCLOR 1254, Method: STANDARD PLATE inactive; negative | [1] inactive; negative | [2] inactive; negative | Test System: AMES SALMONELLA TYPHIMURIUM, Strain/Indicator: TA100, Metabolic Activation: HAMSTER, LIVER, S-9, AROCLOR 1254, Method: STANDARD PLATE inactive; negative | [3] inactive; negative | [4] inactive; negative | Test System: AMES SALMONELLA TYPHIMURIUM, Strain/Indicator: TA1535, Metabolic Activation: HAMSTER, LIVER, S-9, AROCLOR 1254, Method: STANDARD PLATE inactive; negative | Test System: AMES SALMONELLA TYPHIMURIUM, Strain/Indicator: TA1535, Metabolic Activation: NONE, Method: STANDARD PLATE inactive; negative | Test System: AMES SALMONELLA TYPHIMURIUM, Strain/Indicator: TA1535, Metabolic Activation: RAT, LIVER, S-9, AROCLOR 1254, Method: STANDARD PLATE inactive; negative | Test System: AMES SALMONELLA TYPHIMURIUM, Strain/Indicator: TA1537, Metabolic Activation: HAMSTER, LIVER, S-9, AROCLOR 1254, Method: STANDARD PLATE inactive; negative | [5] inactive; negative | [6] inactive; negative | Test System: AMES SALMONELLA TYPHIMURIUM, Strain/Indicator: TA1538, Metabolic Activation: HAMSTER, LIVER, S-9, AROCLOR 1254, Method: STANDARD PLATE inactive; negative | [7] inactive; negative | Test System: AMES SALMONELLA TYPHIMURIUM, Strain/Indicator: TA1538, Metabolic Activation: RAT, LIVER, S-9, AROCLOR 1254, Method: STANDARD PLATE inactive; negative | Test System: Mouse lymphoma, Strain/Indicator: L5178Y (tk+/tk-), Metabolic Activation: None, Method: Suspension/plate inactive; negative | Test System: Mouse lymphoma, Strain/Indicator: L5178Y (tk+/tk-), Metabolic Activation: Rat, Liver, S-9, Aroclor 1254, Method: Suspension/plate inactive; negative

c1ccc2c(c1)cc1ccc3cc4ccccc4c4ccc2c1c34
active: [2] active; positive | [4] active; positive | Test System: AMES SALMONELLA TYPHIMURIUM, Strain/Indicator: TA1538, Metabolic Activation: RAT, LIVER, S-9, PHENOBARBITAL, Method: STANDARD PLATE active; positive | Test System: HUMAN H1A1V2 CELLS, Strain/Indicator: TK LOCUS, Metabolic Activation: NONE, Method: SUSPENSION/PLATE active; positive
inactive: [1] inactive; negative | [3] inactive; negative | [5] inactive; negative | [6] inactive; negative | [7] inactive; negative

NC(Cc1ccc(O)cc1)C(=O)O (stereo not drawn)
inactive: [1] inactive; negative | [2] inactive; negative | [3] inactive; negative | [4] inactive; negative

Nc1nc(-c2ccc([N+](=O)[O-])cc2)nc2c1ncn2[C@@H]1O[C@H](CO)[C@@H](O)[C@H]1O
active: Test System: AMES SALMONELLA TYPHIMURIUM, Strain/Indicator: TA98(1,8-DNP), Metabolic Activation: NONE, Method: PREINCUBATION active; positive | Test System: AMES SALMONELLA TYPHIMURIUM, Strain/Indicator: TA98(NR), Metabolic Activation: NONE, Method: PREINCUBATION active; positive | Test System: AMES SALMONELLA TYPHIMURIUM, Strain/Indicator: TA98, Metabolic Activation: NONE, Method: PREINCUBATION active; positive | Test System: AMES SALMONELLA TYPHIMURIUM, Strain/Indicator: TA98, Metabolic Activation: RAT, LIVER, S-9, PCB, Method: PREINCUBATION active; positive | Test System: AMES SALMONELLA TYPHIMURIUM, Strain/Indicator: TA100, Metabolic Activation: NONE, Method: PREINCUBATION active; positive | Test System: AMES SALMONELLA TYPHIMURIUM, Strain/Indicator: TA100, Metabolic Activation: RAT, LIVER, S-9, PCB, Method: PREINCUBATION active; positive | Test System: AMES SALMONELLA TYPHIMURIUM, Strain/Indicator: YG1020, Metabolic Activation: NONE, Method: PREINCUBATION active; positive | Test System: AMES SALMONELLA TYPHIMURIUM, Strain/Indicator: YG1020, Metabolic Activation: RAT, LIVER, S-9, PCB, Method: PREINCUBATION active; positive | Test System: AMES SALMONELLA TYPHIMURIUM, Strain/Indicator: YG1021, Metabolic Activation: NONE, Method: PREINCUBATION active; positive | Test System: AMES SALMONELLA TYPHIMURIUM, Strain/Indicator: YG1021, Metabolic Activation: RAT, LIVER, S-9, PCB, Method: PREINCUBATION active; positive | Test System: AMES SALMONELLA TYPHIMURIUM, Strain/Indicator: YG1024, Metabolic Activation: NONE, Method: PREINCUBATION active; positive | Test System: AMES SALMONELLA TYPHIMURIUM, Strain/Indicator: YG1024, Metabolic Activation: RAT, LIVER, S-9, PCB, Method: PREINCUBATION active; positive | Test System: AMES SALMONELLA TYPHIMURIUM, Strain/Indicator: YG1025, Metabolic Activation: NONE, Method: PREINCUBATION active; positive | Test System: AMES SALMONELLA TYPHIMURIUM, Strain/Indicator: YG1025, Metabolic Activation: RAT, LIVER, S-9, PCB, Method: PREINCUBATION active; positive | Test System: AMES SALMONELLA TYPHIMURIUM, Strain/Indicator: YG1026, Metabolic Activation: NONE, Method: PREINCUBATION active; positive | Test System: AMES SALMONELLA TYPHIMURIUM, Strain/Indicator: YG1026, Metabolic Activation: RAT, LIVER, S-9, PCB, Method: PREINCUBATION active; positive | Test System: AMES SALMONELLA TYPHIMURIUM, Strain/Indicator: YG1029, Metabolic Activation: NONE, Method: PREINCUBATION active; positive | Test System: AMES SALMONELLA TYPHIMURIUM, Strain/Indicator: YG1029, Metabolic Activation: RAT, LIVER, S-9, PCB, Method: PREINCUBATION active; positive
inactive: Test System: AMES SALMONELLA TYPHIMURIUM, Strain/Indicator: TA98(NR), Metabolic Activation: RAT, LIVER, S-9, PCB, Method: PREINCUBATION inactive; negative | Test System: AMES SALMONELLA TYPHIMURIUM, Strain/Indicator: TA100(1,8-DNP), Metabolic Activation: RAT, LIVER, S-9, PCB, Method: PREINCUBATION inactive; negative | Test System: AMES SALMONELLA TYPHIMURIUM, Strain/Indicator: TA100(NR), Metabolic Activation: RAT, LIVER, S-9, PCB, Method: PREINCUBATION inactive; negative

Cc1ccc2nc3c(c4c(c5ccccc53)O4)c(C)c2c1
active: [3] active; positive
inactive: [4] inactive; negative
